Results as given in a compilation of properties of binary mixtures (doi:10.1007/s11814-009-0129-3).

Test: xn = mol fraction of the nth substance listed
Details: 101 kPa

F[B-](F)(F)F.[Li+] + CCCC[n+]1ccn(C)c1.[I-]
electrical conductivity [S/m]
Details	298.15 K	303.15 K	308.15 K	313.15 K	318.15 K	323.15 K
x1 = 0.1	0.0385	0.0432	–	0.0519	0.0577	0.0647
x1 = 0.2	–	0.0477	0.0515	0.0584	0.0704	–
x1 = 0.3	0.042	0.0488	0.0505	0.0512	0.0597	0.088
x1 = 0.4	0.035	0.0392	0.0461	0.0477	0.0513	0.0554
x1 = 0.5	0.0312	0.0373	0.0425	0.0463	0.0501	0.0549

CCCC[n+]1ccn(C)c1.[I-] + [Li+].[B-](F)(F)(F)F
x2 = 0
Details	electrical conductivity [S/m]
298.15 K	0.0234
303.15 K	0.0262
313.15 K	0.0308
318.15 K	0.0326
323.15 K	0.0345
